Source: patent publication US20120014979A1, “USE OF BCL6 INHIBITORS FOR TREATING AUTOIMMUNE DISEASES” (priority 2010, published 2012)

Test system: individual with symptoms indicative of lupus
Assay: Treatment of Lupus Erythematosus in an individual (Example 2)
Assay type: in vivo, human
Description: The individual is a person with symptoms including chronic fever, malaise, joint pains, myalgias, fatigue, indicative of lupus. The individual has previously been treated, largely unsuccessfully, with cyclophosphamides, corticosteroids and immunosuppressants.
The individual is treated for 1 to 60 days sequentially with BPI-1 administered at a dose of 4 mg/kg daily.

Row | Molecule | results in equivalent or comparable trials with individuals exhibiting similar symptomatology (BCL6 inhibitors other than BPI, compared with BPI-1 treatment of lupus) | amelioration of lupus (severity and frequency of flares and their symptoms) (person, 4 mg/kg daily, 1 to 60 days sequentially)
1 | O=C(O)CC(C(=O)O)N1C(=O)/C(=C2/C(=O)Nc3ccc(Br)cc32)SC1=S (centres unmarked) [79-6] | Equivalent results are obtainable | –
2 | NH2-G(RRRQRRKKR)GG(RGIEHAAR)GG(DIM)G(EW)G(NEIF)G(AIA)G(FL)G-OH [BPI-1] | – | long-lasting amelioration of lupus with a reduction in the severity and frequency of flares and their symptoms
